Test results from PubChem BioAssay AID248 (DTP/NCI, 2004).
Values joined by “and” are separate entries in the source; they are usually repeats but may differ in a detail not shown here. Equal values may be shown once. Toxic doses and inconclusive results are not listed. Rule as the data show it: active = T/C of 150% or more; inactive = T/C below 125%.

Tested on: L1210 leukemia ip in BDF1 mice, survival T/C
Experiment: NCI In Vivo Anticancer Drug Screen. Data for tumor model L1210 Leukemia (intraperitoneal) in B6D2F1 (BDF1) mice
Settings: endpoint: mean survival time, higher = longer survival
Method in brief: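 Value reflects the ratio of survival in compound-treated mice to survival in vehicle-treated controls, with both groups carrying the same transplanted tumor.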

[1] = dose: 100.0 mg/kg/injection, schedule: Q04DX002 (ip), vehicle: Klucel (hydroxypropylcellulose) (HPC)
[2] = dose: 200.0 mg/kg/injection, schedule: Q04DX002 (ip), vehicle: Klucel (hydroxypropylcellulose) (HPC)
[3] = dose: 400.0 mg/kg/injection, schedule: Q04DX002 (ip), vehicle: Klucel (hydroxypropylcellulose) (HPC)
[4] = dose: 100.0 mg/kg/injection, schedule: Q01DX009 (ip), vehicle: saline with Tween-80
[5] = dose: 200.0 mg/kg/injection, schedule: Q01DX001 (ip), vehicle: saline
[6] = dose: 400.0 mg/kg/injection, schedule: Q01DX001 (ip), vehicle: saline
[7] = dose: 100.0 mg/kg/injection, schedule: Q01DX001 (ip), vehicle: saline

Measured: T/C

CC(=O)Nc1cccc(OC(=O)Nc2ccc(F)c(Cl)c2)c1
inactive: [1] 96 % of control | [2] 89 % of control | [3] 121 % of control

COc1cc(/C=N/Nc2ccc([N+](=O)[O-])cc2)cc(OC)c1OC
inactive: dose: 100.0 mg/kg/injection, schedule: Q04DX003 (ip), vehicle: saline with Tween-80 86 % of control | dose: 200.0 mg/kg/injection, schedule: Q04DX003 (ip), vehicle: saline with Tween-80 89 % of control | dose: 400.0 mg/kg/injection, schedule: Q04DX003 (ip), vehicle: saline with Tween-80 86 % of control

Cc1ccc(S(=O)(=O)Nc2ccc(I)c(Cl)c2Cl)cc1
inactive: [4] 101 % of control | dose: 200.0 mg/kg/injection, schedule: Q01DX009 (ip), vehicle: saline with Tween-80 104 % of control | dose: 400.0 mg/kg/injection, schedule: Q01DX009 (ip), vehicle: saline with Tween-80 110 % of control

Cc1cc(C(N)=O)c(C(N)=O)c(=O)[nH]1
inactive: dose: 75.0 mg/kg/injection, schedule: Q01DX001 (ip), vehicle: water 97 % of control | dose: 150.0 mg/kg/injection, schedule: Q01DX001 (ip), vehicle: water 92 % of control

CCN1CSC(=S)N(CC)C1
inactive: dose: 12.5 mg/kg/injection, schedule: Q04DX003 (ip), vehicle: Klucel (hydroxypropylcellulose) (HPC) 96 % of control | dose: 25.0 mg/kg/injection, schedule: Q01DX009 (ip), vehicle: Klucel (hydroxypropylcellulose) (HPC) 103 % of control | dose: 25.0 mg/kg/injection, schedule: Q04DX003 (ip), vehicle: Klucel (hydroxypropylcellulose) (HPC) 112 % of control | dose: 50.0 mg/kg/injection, schedule: Q01DX009 (ip), vehicle: Klucel (hydroxypropylcellulose) (HPC) 109 % of control | dose: 50.0 mg/kg/injection, schedule: Q04DX003 (ip), vehicle: Klucel (hydroxypropylcellulose) (HPC) 103 % of control

COc1ccc(CCN=c2c3ccccc3ccc3ccccc23)cc1OC
inactive: dose: 100.0 mg/kg/injection, schedule: Q04DX003 (ip), vehicle: saline 111 % of control | dose: 200.0 mg/kg/injection, schedule: Q04DX003 (ip), vehicle: saline 97 % of control | dose: 400.0 mg/kg/injection, schedule: Q04DX003 (ip), vehicle: saline 105 % of control

Oc1ccc(Br)cc1/C=N/NC(=S)Nc1cccc2cccnc12
inactive: [5] 94 % of control | [6] 96 % of control

COc1cc2c(cc1OC)C(CCCCCCCC1NCCc3cc(OC)c(OC)cc31)NCC2 (stereo unspecified)
inactive: dose: 0.25 mg/kg/injection, schedule: Q01DX015 (ip), vehicle: saline 97 % of control | dose: 0.5 mg/kg/injection, schedule: Q01DX015 (ip), vehicle: saline 100 % of control | dose: 1.0 mg/kg/injection, schedule: Q01DX015 (ip), vehicle: saline 103 % of control | dose: 2.0 mg/kg/injection, schedule: Q01DX015 (ip), vehicle: saline 102 % of control | dose: 4.0 mg/kg/injection, schedule: Q01DX015 (ip), vehicle: saline 106 % of control | dose: 8.0 mg/kg/injection, schedule: Q01DX015 (ip), vehicle: carboxymethylcellulose (CMC) 91 % of control | dose: 16.0 mg/kg/injection, schedule: Q01DX015 (ip), vehicle: carboxymethylcellulose (CMC) 91 % of control | dose: 50.0 mg/kg/injection, schedule: Q01DX001 (ip), vehicle: saline 101 % of control | [7] 100 % of control

Cc1ccc[n+]2c1ccc1c3ccccc3ccc12
inactive: dose: 10.0 mg/kg/injection, schedule: Q01DX001 (ip), vehicle: saline 106 % of control

O=[N+]([O-])c1cccc(/C=C/C=C/c2ccc(Cl)c(Cl)c2)c1
inactive: [1] 100 % of control | [2] 93 % of control | [3] 96 % of control

CN(C)C(=S)SSSC(=S)N(C)C
inactive: dose: 25.0 mg/kg/injection, schedule: Q04DX002 (ip), vehicle: Klucel (hydroxypropylcellulose) (HPC) 101 % of control | dose: 50.0 mg/kg/injection, schedule: Q04DX002 (ip), vehicle: Klucel (hydroxypropylcellulose) (HPC) 94 % of control | [1] 93 % of control and 105 % of control

COc1ccc(CC(=O)NCCc2ccccc2)cc1OC
inactive: dose: 12.5 mg/kg/injection, schedule: Q01DX009 (ip), vehicle: saline with Tween-80 92 % of control | dose: 25.0 mg/kg/injection, schedule: Q01DX009 (ip), vehicle: saline with Tween-80 92 % of control | dose: 50.0 mg/kg/injection, schedule: Q01DX009 (ip), vehicle: saline with Tween-80 103 % of control and 92 % of control | [4] 105 % of control

Nc1ncnc2nncnc12
inactive: dose: 50.0 mg/kg/injection, schedule: Q01DX001 (ip), vehicle: carboxymethylcellulose (CMC) 93 % of control | dose: 100.0 mg/kg/injection, schedule: Q01DX001 (ip), vehicle: carboxymethylcellulose (CMC) 93 % of control

Cc1nc2ccc(O)cc2cc1CBr
inactive: dose: 6.25 mg/kg/injection, schedule: Q01DX009 (ip), vehicle: saline 112 % of control | dose: 12.5 mg/kg/injection, schedule: Q01DX009 (ip), vehicle: saline 104 % of control | dose: 12.5 mg/kg/injection, schedule: Q04DX003 (ip), vehicle: saline 107 % of control | dose: 25.0 mg/kg/injection, schedule: Q01DX009 (ip), vehicle: saline 106 % of control | dose: 25.0 mg/kg/injection, schedule: Q04DX003 (ip), vehicle: saline 115 % of control | dose: 50.0 mg/kg/injection, schedule: Q04DX003 (ip), vehicle: saline 97 % of control

N#C/C(=N\O)C(N)=O
inactive: [7] 102 % of control and 103 % of control | [5] 98 % of control and 107 % of control | [6] 93 % of control and 107 % of control

O=c1oc(=O)c2ccccc2c2ccccc12
inactive: dose: 100.0 mg/kg/injection, schedule: Q01DX001 (ip), vehicle: other 93 % of control | dose: 200.0 mg/kg/injection, schedule: Q01DX001 (ip), vehicle: other 96 % of control | dose: 400.0 mg/kg/injection, schedule: Q01DX001 (ip), vehicle: other 107 % of control

CN1CC(CO)C=C2c3cccc4[nH]cc(c34)CC21 (stereo unspecified)
inactive: dose: 25.0 mg/kg/injection, schedule: Q01DX009 (ip), vehicle: alcohol 100 % of control | dose: 25.0 mg/kg/injection, schedule: Q04DX003 (ip), vehicle: alcohol 98 % of control | dose: 50.0 mg/kg/injection, schedule: Q01DX009 (ip), vehicle: alcohol 118 % of control | dose: 50.0 mg/kg/injection, schedule: Q04DX003 (ip), vehicle: alcohol 103 % of control | dose: 100.0 mg/kg/injection, schedule: Q01DX009 (ip), vehicle: alcohol 123 % of control | dose: 100.0 mg/kg/injection, schedule: Q04DX003 (ip), vehicle: alcohol 101 % of control | dose: 200.0 mg/kg/injection, schedule: Q01DX009 (ip), vehicle: alcohol 107 % of control | dose: 200.0 mg/kg/injection, schedule: Q04DX003 (ip), vehicle: alcohol 98 % of control | dose: 400.0 mg/kg/injection, schedule: Q04DX003 (ip), vehicle: alcohol 109 % of control

COc1cc(/C=N/NC(=O)c2ccccc2N)ccc1O
inactive: [1] 98 % of control | [2] 106 % of control | [3] 109 % of control

CCOCCOC(=O)CSCC(=O)OCCOCC
inactive: [7] 93 % of control | [5] 104 % of control | [6] 109 % of control

O=S(=O)(F)c1ccccc1C[P+](c1ccccc1)(c1ccccc1)c1ccccc1
inactive: dose: 1.56 mg/kg/injection, schedule: Q01DX009 (ip), vehicle: Klucel (hydroxypropylcellulose) (HPC) 110 % of control | dose: 3.12 mg/kg/injection, schedule: Q01DX009 (ip), vehicle: Klucel (hydroxypropylcellulose) (HPC) 118 % of control | dose: 6.25 mg/kg/injection, schedule: Q01DX009 (ip), vehicle: Klucel (hydroxypropylcellulose) (HPC) 117 % of control

CCCCN(C(=O)OCC)P(=O)(OCC)OCC
inactive: dose: 100.0 mg/kg/injection, schedule: Q01DX009 (ip), vehicle: saline 95 % of control | dose: 200.0 mg/kg/injection, schedule: Q01DX009 (ip), vehicle: saline 109 % of control

COc1c(C)cccc1[N+](=O)[O-]
inactive: dose: 100.0 mg/kg/injection, schedule: Q01DX009 (ip), vehicle: Klucel (hydroxypropylcellulose) (HPC) 104 % of control | dose: 100.0 mg/kg/injection, schedule: Q04DX003 (ip), vehicle: Klucel (hydroxypropylcellulose) (HPC) 98 % of control | dose: 200.0 mg/kg/injection, schedule: Q01DX009 (ip), vehicle: Klucel (hydroxypropylcellulose) (HPC) 101 % of control | dose: 200.0 mg/kg/injection, schedule: Q04DX003 (ip), vehicle: Klucel (hydroxypropylcellulose) (HPC) 104 % of control | dose: 400.0 mg/kg/injection, schedule: Q01DX009 (ip), vehicle: Klucel (hydroxypropylcellulose) (HPC) 101 % of control | dose: 400.0 mg/kg/injection, schedule: Q04DX003 (ip), vehicle: Klucel (hydroxypropylcellulose) (HPC) 101 % of control
